Legend:
[1] = biological target: T1, PI3Kβ (p110β/p85α) (Homo sapiens, UniProt P42338); experiment: PI3Kβ ADP-Glo assay; format: biochemical; settings: 20 μM PIP2, 10 μM ATP, 90 minutes
T1 construct: His (N); made in house; host or cells: Baculovirus-infected Sf9 cells
Procedure: (B) an In Vitro Assay which Determines the Ability of a Test Compound to Inhibit PI3Kβ.
(§1) Activity of PI3Kβ was measured using ADP-Glo assay from Promega. P13Kα, a complex of N-terminal His-tagged recombinant full-length human p110β (GenBank, Accession No. NM_006219) and untagged recombinant full length human p85α (GenBank Accession No. XM—043865) were co-expressed in a Baculovirus infected Sf9 cell expression system. The ADP-Glo assay was performed to measure the amount of ADP generated from ATP hydrolysis coupled with PIP2 phosphorylation by the purified recombinant PI3Kβ (p110β/p85α). PI3Kβ was incubated with 20 μM PIP2 substrate in the reaction buffer (10 mM Tris-HCl, pH 7.5, 50 mM NaCl, 5 mM MgCl2, 10 μM ATP and 0.5% DMSO) for 90 minutes at room temperature. The ADP generated was then detected by ADP-Glo assay from Promega, a luminescent ADP detection assay. The ADP-Glo assay is performed in two steps; first, after the kinase reaction, ADP-Glo Reagent is added to terminate the kinase reaction and deplete the remaining ATP. Second, the Kinase Detection Reagent is added to simultaneously convert ADP to ATP and allow the newly synthesized ATP to be measured using a luciferase/luciferin reaction.

[2] = biological target: T2, PI3Kγ (p120γ) (Homo sapiens, UniProt P48736); experiment: PI3Kγ ADP-Glo assay; format: biochemical; settings: 20 μM PIP2, 10 μM ATP, 90 minutes
T2 construct: His (N); made in house; host or cells: Baculovirus-infected Sf9 cells
T2 sequence (P48736 whole entry): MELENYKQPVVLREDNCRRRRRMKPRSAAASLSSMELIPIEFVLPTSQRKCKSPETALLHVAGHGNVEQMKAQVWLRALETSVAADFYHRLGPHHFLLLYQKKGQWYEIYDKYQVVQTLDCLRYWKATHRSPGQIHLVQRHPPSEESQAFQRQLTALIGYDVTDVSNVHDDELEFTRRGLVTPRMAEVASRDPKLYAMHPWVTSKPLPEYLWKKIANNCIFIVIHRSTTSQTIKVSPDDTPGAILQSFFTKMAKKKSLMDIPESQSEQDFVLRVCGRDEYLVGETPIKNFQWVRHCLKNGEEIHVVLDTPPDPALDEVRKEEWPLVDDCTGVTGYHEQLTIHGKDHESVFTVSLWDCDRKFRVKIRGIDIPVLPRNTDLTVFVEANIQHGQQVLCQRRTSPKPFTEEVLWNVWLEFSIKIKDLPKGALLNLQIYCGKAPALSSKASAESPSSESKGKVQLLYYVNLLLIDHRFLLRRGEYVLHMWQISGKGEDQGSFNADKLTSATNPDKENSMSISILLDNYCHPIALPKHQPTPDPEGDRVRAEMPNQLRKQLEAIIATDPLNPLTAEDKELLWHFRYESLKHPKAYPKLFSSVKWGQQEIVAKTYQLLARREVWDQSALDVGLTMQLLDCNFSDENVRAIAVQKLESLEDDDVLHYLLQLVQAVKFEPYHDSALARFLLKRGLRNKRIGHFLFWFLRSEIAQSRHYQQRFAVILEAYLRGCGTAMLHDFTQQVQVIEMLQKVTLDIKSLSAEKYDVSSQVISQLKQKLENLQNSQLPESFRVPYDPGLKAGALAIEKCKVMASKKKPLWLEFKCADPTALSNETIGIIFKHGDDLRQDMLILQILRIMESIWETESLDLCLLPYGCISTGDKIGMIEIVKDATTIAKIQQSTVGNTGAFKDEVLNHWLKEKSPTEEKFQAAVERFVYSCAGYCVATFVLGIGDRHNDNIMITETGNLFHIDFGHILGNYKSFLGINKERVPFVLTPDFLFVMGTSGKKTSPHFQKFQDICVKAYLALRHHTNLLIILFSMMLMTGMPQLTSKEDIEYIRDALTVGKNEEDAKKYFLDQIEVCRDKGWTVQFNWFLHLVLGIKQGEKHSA
Procedure: (d) an In Vitro Assay which Determines the Ability of a Test Compound to Inhibit PI3Kγ.
as §1, with “PI3Kγ” for “PI3Kβ”, “PI3Kγ,” for “P13Kα, a complex of”, “p120γ” for “p110β”, “AF327656) was expressed” for “NM_006219) and untagged recombinant full length human p85α (GenBank Accession No. XM—043865) were co-expressed”, “PI3Kγ […]. PI3Kγ” for “PI3Kβ (p110β/p85α). PI3Kβ”

[3] = biological target: T3, PI3Kδ (p110δ/p85α) (Homo sapiens, UniProt O00329); experiment: PI3Kδ ADP-Glo assay; format: biochemical; settings: 20 μM PIP2, 10 μM ATP, 90 minutes
T3 construct: GST (N); made in house; host or cells: Baculovirus-infected Sf9 cells
T3 sequence (O00329 whole entry): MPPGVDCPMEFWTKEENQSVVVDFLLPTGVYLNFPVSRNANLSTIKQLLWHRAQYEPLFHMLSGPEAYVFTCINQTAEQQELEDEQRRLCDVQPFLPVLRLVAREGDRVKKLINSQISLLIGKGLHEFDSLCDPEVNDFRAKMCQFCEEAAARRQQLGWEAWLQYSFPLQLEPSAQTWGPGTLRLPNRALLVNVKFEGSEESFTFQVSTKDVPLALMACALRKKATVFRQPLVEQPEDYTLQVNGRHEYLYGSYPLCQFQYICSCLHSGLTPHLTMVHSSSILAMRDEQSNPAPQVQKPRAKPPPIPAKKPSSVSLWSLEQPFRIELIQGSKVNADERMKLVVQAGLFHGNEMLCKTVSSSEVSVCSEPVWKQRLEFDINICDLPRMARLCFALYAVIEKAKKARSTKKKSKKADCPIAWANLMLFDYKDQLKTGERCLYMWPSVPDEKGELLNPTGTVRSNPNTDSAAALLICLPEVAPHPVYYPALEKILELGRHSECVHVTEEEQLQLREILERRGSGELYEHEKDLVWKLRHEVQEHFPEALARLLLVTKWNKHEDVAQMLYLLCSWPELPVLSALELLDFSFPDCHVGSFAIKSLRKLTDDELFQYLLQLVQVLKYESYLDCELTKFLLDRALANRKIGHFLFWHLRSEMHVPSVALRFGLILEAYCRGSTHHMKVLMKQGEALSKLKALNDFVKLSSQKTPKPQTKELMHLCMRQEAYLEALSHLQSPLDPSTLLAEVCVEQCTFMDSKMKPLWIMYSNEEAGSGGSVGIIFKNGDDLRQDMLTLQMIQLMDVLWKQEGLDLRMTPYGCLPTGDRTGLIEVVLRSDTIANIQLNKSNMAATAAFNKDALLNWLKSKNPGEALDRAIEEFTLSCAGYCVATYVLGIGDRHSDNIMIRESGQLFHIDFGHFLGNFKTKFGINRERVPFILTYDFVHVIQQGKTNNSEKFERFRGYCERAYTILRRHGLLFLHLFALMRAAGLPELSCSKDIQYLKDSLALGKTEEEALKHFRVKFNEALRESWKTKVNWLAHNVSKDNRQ
T3 sequence (P27986 whole entry partner): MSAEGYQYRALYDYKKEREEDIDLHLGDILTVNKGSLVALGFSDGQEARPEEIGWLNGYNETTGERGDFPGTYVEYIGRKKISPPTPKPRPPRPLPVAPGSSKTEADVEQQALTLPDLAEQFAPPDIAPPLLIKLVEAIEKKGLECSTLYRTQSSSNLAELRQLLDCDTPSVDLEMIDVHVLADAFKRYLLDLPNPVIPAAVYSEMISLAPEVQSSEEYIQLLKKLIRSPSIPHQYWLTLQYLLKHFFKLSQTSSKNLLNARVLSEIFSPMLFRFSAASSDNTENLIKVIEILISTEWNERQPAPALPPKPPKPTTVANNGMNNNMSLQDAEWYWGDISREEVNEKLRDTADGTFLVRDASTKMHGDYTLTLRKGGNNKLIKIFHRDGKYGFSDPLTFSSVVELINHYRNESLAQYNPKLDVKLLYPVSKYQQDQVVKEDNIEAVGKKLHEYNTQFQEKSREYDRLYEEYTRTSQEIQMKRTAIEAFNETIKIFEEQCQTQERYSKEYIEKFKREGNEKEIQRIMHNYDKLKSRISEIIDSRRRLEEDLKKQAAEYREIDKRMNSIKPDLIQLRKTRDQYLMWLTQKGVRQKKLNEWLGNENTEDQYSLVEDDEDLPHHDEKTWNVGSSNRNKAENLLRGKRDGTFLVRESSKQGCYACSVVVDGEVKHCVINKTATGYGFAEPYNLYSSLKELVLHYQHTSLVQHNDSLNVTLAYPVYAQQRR
Procedure: (c) an In Vitro Assay which Determines the Ability of a Test Compound to Inhibit PI3Kδ.
as §1, with “PI3Kδ” for “PI3Kβ”, “PI3Kδ,” for “P13Kα,”, “GST-tagged” for “His-tagged”, “p110δ” for “p110β”, “NM_005026)” for “NM_006219)”, “PI3Kδ (p110δ/p85α). PI3Kδ” for “PI3Kβ (p110β/p85α). PI3Kβ”

[4] = biological target: T4, mTor serine/threonine protein kinase (Homo sapiens, UniProt P42345); experiment: mTor kinase radioisotope assay; format: biochemical; settings: 70 uM ATP, 40 minutes; read-out: m-TOR IC50
T4 construct: FLAG; made in house; host or cells: Baculovirus expression system in Sf21 cells
Outline: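 FLAG-tagged full-length recombinant human mTor from baculovirus/Sf21, incubated with p70S6K C-terminal fragment (2 mg/ml) and 70 uM ATP plus 33P-ATP tracer in 50 mM HEPES pH 7.5, 3 mM MnCl2, 40 min at room temperature. Phosphoric acid stop, filtermat capture, scintillation counting; IC50 from sigmoidal dose-response fit.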

[5] = tested on: H292; experiment: Cell proliferation assay (CellTiter-Glo); format: cell-based; settings: Homo sapiens, NCI-H292; NSCLC; 72 hours, 0.5% fetal bovine serum; read-out: antiproliferative activity IC50, H292
Outline: (§2)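 5,000–10,000 cells/well; compound titration, 72 h, 0.5% FBS. ATP luminescence read 30 min after lysis/substrate addition.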

[6] = tested on: SW403; experiment: Cell proliferation assay (CellTiter-Glo); format: cell-based; settings: Homo sapiens, SW-403; Colon; 72 hours, 0.5% fetal bovine serum; read-out: antiproliferative activity IC50, SW403
Outline: as §2

T1 sequence (P42338 whole entry): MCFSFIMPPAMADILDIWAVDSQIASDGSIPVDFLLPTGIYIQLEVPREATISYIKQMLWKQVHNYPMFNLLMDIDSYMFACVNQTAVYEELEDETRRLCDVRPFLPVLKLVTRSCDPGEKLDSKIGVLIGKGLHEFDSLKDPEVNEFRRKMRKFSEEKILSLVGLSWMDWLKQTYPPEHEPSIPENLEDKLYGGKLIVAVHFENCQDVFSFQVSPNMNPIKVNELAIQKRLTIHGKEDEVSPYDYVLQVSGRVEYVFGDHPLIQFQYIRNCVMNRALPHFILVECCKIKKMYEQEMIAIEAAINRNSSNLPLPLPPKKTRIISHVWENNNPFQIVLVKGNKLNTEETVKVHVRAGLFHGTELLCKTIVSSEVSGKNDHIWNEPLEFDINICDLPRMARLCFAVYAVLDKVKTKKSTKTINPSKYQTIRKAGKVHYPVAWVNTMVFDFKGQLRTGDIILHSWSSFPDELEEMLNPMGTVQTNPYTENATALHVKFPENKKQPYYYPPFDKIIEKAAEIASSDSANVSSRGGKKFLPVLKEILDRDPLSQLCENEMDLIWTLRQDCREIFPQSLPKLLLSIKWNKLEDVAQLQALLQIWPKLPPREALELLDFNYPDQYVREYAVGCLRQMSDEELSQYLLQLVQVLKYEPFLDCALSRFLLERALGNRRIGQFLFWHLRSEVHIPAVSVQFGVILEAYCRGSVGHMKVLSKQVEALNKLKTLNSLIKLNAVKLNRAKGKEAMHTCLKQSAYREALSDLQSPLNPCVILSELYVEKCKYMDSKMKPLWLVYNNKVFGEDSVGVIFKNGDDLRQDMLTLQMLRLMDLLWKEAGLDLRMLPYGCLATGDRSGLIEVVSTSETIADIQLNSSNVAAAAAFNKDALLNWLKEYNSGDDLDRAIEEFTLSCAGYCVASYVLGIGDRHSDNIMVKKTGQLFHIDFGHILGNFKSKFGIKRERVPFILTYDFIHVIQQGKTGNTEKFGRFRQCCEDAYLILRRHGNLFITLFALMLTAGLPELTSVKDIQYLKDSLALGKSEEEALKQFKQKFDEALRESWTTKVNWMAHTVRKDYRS
T1 sequence (P27986 whole entry partner): as the sequence (P27986 whole entry partner) above

In the case of `CN(Cc1cc2nc(-c3cccc4[nH]ncc34)nc(N3CCOCC3)c2s1)c1ncc(C(=O)NO)cn1` [Compound 54, 2-(((2-(1H-indazol-4-yl)-4-morpholinothieno[3,2-d]pyrimidin-6-yl)methyl)(methyl)amino)-N-hydroxypyrimidine-5-carboxamide], the IC50 [1] is reported as < 0.1 µM, the IC50 [2] is reported as < 0.1 µM and the IC50 [3] is reported as < 0.1 µM.
For `CNc1ccc(-c2nc(N3CCOCC3)c3sc(CN(C)c4ncc(C(=O)NO)cn4)cc3n2)cn1` [Compound 111, N-Hydroxy-2-(methyl((2-(6-(methylamino)pyridin-3-yl)-4-morpholinothieno[3,2-d]pyrimidin-6-yl)methyl)amino)pyrimidine-5-carboxamide], the IC50 [1] was 0.1 to 1 µM, the IC50 [2] was 0.1 to 1 µM and the IC50 [3] was < 0.1 µM. For the same compound, the IC50 [4] was < 0.1 µM, the IC50 [5] was < 0.01 µM and the IC50 [6] was < 0.01 µM.
In the case of `CN(Cc1cc2nc(-c3ccc(N)cc3)nc(N3CCOCC3)c2s1)c1ncc(C(=O)NO)cn1` [Compound 150, 2-(((2-(4-aminophenyl)-4-morpholinothieno[3,2-d]pyrimidin-6-yl)methyl)(methyl)amino)-N-hydroxypyrimidine-5-carboxamide], the IC50 [4] is reported as < 0.1 µM, the IC50 [5] is reported as < 0.01 µM and the IC50 [6] is reported as < 0.01 µM.

Reference: patent US20130102595A1 (Curis, Inc., priority 2011, published 2013)
